Reference: PubChem BioAssay (NCI)
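Following 48 hours of exposure in 96-well plates, responses at five concentrations were used to interpolate endpoints linearly. The concentration for 50% growth inhibition is given as GI50. The concentration for full growth arrest is given as TGI.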

Columns and labels:
Assay in all cases: NCI tumour cell line growth inhibition, 48 h
[1] = test system: 786-0 renal
[2] = test system: EKVX NSCLC
[3] = test system: HL-60(TB) leukemia
[4] = test system: LOX IMVI melanoma
[5] = test system: M14 melanoma
[6] = test system: OVCAR-3 ovarian
[7] = test system: OVCAR-4 ovarian
[8] = test system: SK-OV-3 ovarian
[9] = test system: SR leukemia
[10] = test system: T-47D breast

Row | Structure (SMILES) | TGI [1] | TGI [2] | TGI [3] | TGI [4] | TGI [5] | TGI [6] | TGI [7] | TGI [8] | TGI [9] | GI50 [2] | GI50 [3] | GI50 [4] | GI50 [6] | GI50 [7] | GI50 [8] | GI50 [10] | TGI [10]
1 | CC#COP(=O)(OCC)OCC | > 100 µM | > 100 µM | 60.6 µM | > 100 µM | > 100 µM | > 100 µM | > 100 µM | > 100 µM | > 100 µM | – | – | – | – | – | – | – | –
2 | Cc1c(C#N)c2nnn(C)c(=O)n2c1-c1ccccc1 | – | > 100 µM | > 100 µM | – | > 100 µM | > 100 µM | > 100 µM | > 100 µM | – | – | – | – | – | – | – | – | –
3 | NS(=O)(=O)c1cc2c(cc1Cl)NC(C(=O)c1cc(=O)c3ccc(O)cc3o1)=NS2(=O)=O | > 100 µM | > 100 µM | > 100 µM | > 100 µM | > 100 µM | > 100 µM | > 100 µM | > 100 µM | > 100 µM | – | – | – | – | – | – | – | –
4 | N#CC(C#N)=CN1CCN(C(=O)c2ccco2)C1=S | – | 71.5 µM | 58.1 µM | > 100 µM | – | > 100 µM | 46 µM | 86.5 µM | – | 11.9 µM | 19.8 µM | 3.34 µM | 11.2 µM | 20.1 µM | 33.1 µM | 21.2 µM | > 100 µM
5 | Cc1occc1C(=S)Nc1ccc(Cl)c(C(=O)OCC(F)(F)F)c1 | 34.6 µM | 64.2 µM | 65.6 µM | 34.7 µM | > 100 µM | 81.4 µM | 45.9 µM | 51.2 µM | – | – | – | – | – | – | – | – | 72.4 µM
6 | COc1cc(S(=O)(=O)Nc2ccc(-c3csc(N4C(=O)CSC4c4cccs4)n3)cc2)ccc1Cl (stereo not given) | > 100 µM | > 100 µM | 41.5 µM | 36.6 µM | > 100 µM | > 100 µM | 82.9 µM | > 100 µM | > 100 µM | – | – | – | – | – | – | – | –
7 | O=c1c2cc(S(=O)(=O)Nc3ccccc3Cl)ccc2ncn1NS(=O)(=O)c1ccc(Br)cc1 | > 37.5 µM | > 37.5 µM | > 37.5 µM | > 37.5 µM | > 37.5 µM | > 37.5 µM | > 37.5 µM | > 37.5 µM | > 37.5 µM | – | – | – | – | – | – | – | –
8 | CCOC(=O)NC(C(F)(F)F)(C(F)(F)F)P(=O)(OC(C)C)OC(C)C | > 100 µM | > 100 µM | > 100 µM | > 100 µM | – | > 100 µM | > 100 µM | > 100 µM | > 100 µM | – | – | – | – | – | – | – | –
9 | C=CCONC(=O)c1ccc(Cl)cc1 | > 100 µM | > 100 µM | > 100 µM | > 100 µM | > 100 µM | – | > 100 µM | > 100 µM | > 100 µM | – | – | – | – | – | – | – | –
10 | COc1cc(/C=C\c2ccccn2)cc(OC)c1OC | > 100 µM | > 100 µM | > 100 µM | > 100 µM | > 100 µM | > 100 µM | > 100 µM | – | – | – | – | – | – | – | – | – | –
11 | COc1cc2c(cc1OC)-c1[nH]c3ccc(C#N)cc3c1CC(=O)N2 | > 100 µM | > 100 µM | 7.45 µM | > 33.6 µM | > 100 µM | – | > 100 µM | > 100 µM | – | – | – | – | – | – | – | – | > 100 µM
12 | CSc1nc2ccccc2c(=O)n1/N=C1\C(=O)N(CN2CCCCC2)c2ccc(Cl)cc21 | 69 µM | > 100 µM | 50.1 µM | 28.8 µM | > 100 µM | > 100 µM | > 100 µM | 94.7 µM | – | – | – | – | – | – | – | – | 54.8 µM
13 | N#CC1(C#N)C2CCCCC23OC(=N)C1(C#N)C(c1ccco1)O3 (stereo not given) | 31.2 µM | 79.3 µM | – | 37.5 µM | 41.6 µM | 33.5 µM | – | > 100 µM | – | – | – | – | – | – | – | – | 51.8 µM
14 | NC(=O)OCC(COc1ccc(Cl)cc1)OC(=O)c1ccccc1Cl (stereo not given) | 36.6 µM | 70 µM | 41.5 µM | 27.9 µM | 32.8 µM | 40.7 µM | – | > 100 µM | 51.7 µM | – | – | – | – | – | – | – | –
15 | c1ccc(Nc2nnc(CSc3nc(-c4ccccc4)c(-c4ccccc4)[nH]3)s2)cc1 | 39.3 µM | 51.5 µM | 31.4 µM | 31.8 µM | 28.5 µM | 26.7 µM | 87.7 µM | 56 µM | 51.1 µM | – | – | – | – | – | – | – | –
16 | CCOC(=O)CSc1ccnc(=O)[nH]1 | > 100 µM | > 100 µM | > 100 µM | > 100 µM | > 100 µM | > 100 µM | – | > 100 µM | – | – | – | – | – | – | – | – | –
17 | O=C(NC(C(F)(F)F)(C(F)(F)F)P(=O)(c1ccccc1)c1ccccc1)C(C(F)(F)F)C(F)(F)F | 47.8 µM | > 100 µM | 63.2 µM | 58.9 µM | 36.3 µM | 69.7 µM | > 100 µM | > 100 µM | – | – | – | – | – | – | – | – | > 100 µM
